Assay results as given in paper PMC7570852, “Ruthenium(II)/(III) DMSO-Based Complexes of 2-Aminophenyl Benzimidazole with In Vitro and In Vivo Anticancer Activity” (Molecules, 2020).

Experiments:
Caco2 cells = assay: Cell-cycle analysis by flow cytometry (PI), Caco2; type: cell-based, human; conditions: Caco2, 117.6 μg/mL, 24 h
Procedure: The Ru(III) complex (2) (117.6 μg/mL) was added to MCF7 and Caco2 cells at a confluence of 70–80% and incubated for 24 h (in a CO2 incubator). The cells were then digested with warm trypsin-EDTA + warm PBS-EDTA (0.25%) (500 + 500 μL) with incubation for 10 min at 37 °C. The mixture was centrifuged (450 rpm) for 5 min, then the supernatant was removed. The mixture was washed twice in warm PBS and the cell pellet was re-suspended in 500 µl warm PBS, centrifuged and the supernatant decanted. A volume of 150 μL PBS + 350 μL ice-cold 70% ethanol was added and incubated at 4 °C for 1 h to fix the cells. To remove ethanol, the mixture was centrifuged at 350 rpm for 10 min and then the supernatant was removed. The mixture was washed twice in warm PBS and the cells were re-suspended in 500 μL of warm PBS, centrifuged, and the supernatant was removed. The cells were resuspended in 100 μL PBS and stored at 4 °C for up to four days. In darkness, the cells were stained with 100 µL of propidium iodide (PI) solution + 50 µL RNase A solution (100 µg/mL) and incubated in darkness for 30–60 min. The stained cells were read in an Attune flow cytometer (Applied Bio-system, Foster City, CA, USA).

[1] = Median lethal dose (LD50) determination; type: in vivo; conditions: mice, intraperitoneal, mortality after 24 h
Procedure: The LD50 was estimated by the method of Enegide. Briefly, different concentrations of compound (2) was prepared by dissolving a certain weight in 2% DMSO and completed with sterile saline then vortexed and left for 5 min until the solution was clear. Three hundred µL of each concentration (10, 20, 40, 60, 80, 100, 120, and 140 mg/kg) was injected intraperitoneally to eight groups of mice (each one containing four mice), then mortality was recorded after 24 h.

[2] = test system: human breast cancer (MCF7) cells; assay: MTT cell viability assay, MCF7; type: cell-based; conditions: 24 h
Procedure: The cytotoxic effect of the Hapbim ligand and its complexes (1) and (2) on human breast cancer (MCF7), human colorectal cancer (Caco2), and human normal liver (THLE-2) cell lines was evaluated by the MTT assay. The cells were cultured in a 96-well plate (1 × 10^4 cells/well, 100 μL/well) containing DMEM medium provided with 10% fetal bovine serum, and 1% penicillin/streptomycin. Then, the cells were incubated at 37 °C for 24 h in a CO2 incubator under 5% CO2, 95% air until reaching a confluence of 70–80%. A 20 μL volume of each compound at different concentrations (from 5 to 400 μM for the cancer cell and from 600 to 1000 μM for the normal cells) was added and the cells were re-incubated for a further 24 h. After the incubation period, the cells were incubated again with 5 mg/mL of MTT for 4 h and then the medium was replaced with 100 μL DMSO and vortexed for 20 min. Finally, the absorbance was recorded at 570 nm using the microplate reader. […] To calculate the cell inhibition percentage, the following equation was used:% Cell inhibition = 100 − % cell viability ((At − Ab)/(Ac − Ab)) × 100%)(4) where At is the absorbance value of tested compound; Ab is the absorbance value of blank; Ac is the absorbance value of the control.

[3] = Solution stability by UV-Vis spectroscopy; type: physicochemical; conditions: 4% DMSO, 96% PBS, pH 7.4, over 24 h
Procedure: Stability studies of complexes (1) and (2) were carried out by UV-Vis spectroscopy in the 200–900 nm range. […] The electronic spectra for the solutions were measured over 24 h.

Cyclic voltammetry = type: physicochemical; conditions: 10^−3 M in CH2Cl2/DMSO, 0.1 M (Bu4N)PF6, scan rate 50 mVs^−1
Procedure: Elemental analyses (C, H, N) were performed by the Microanalysis unit in the Department of Chemistry at Simon Fraser University. Infrared spectra (FTIR) were performed on a JASCO 4100 FTIR spectrophotometer in the 4000–400 cm^−1 range using a KBr disc. NMR (^1H and ^13C) spectra were recorded in DMSO-d6 solvent using a Bruker 400 MHz instrument. The 2D NMR analysis (^1H–^1H COSY) was performed on a Jeol 500 MHz NMR, at Mansoura University. ESI/APCI HRMS data were acquired on a Thermo Scientific Exactive Plus Orbitrap mass spectrometer. Electronic spectra (in DMSO, 200–900 nm) were measured on a JASCO 630 V spectrophotometer. Emission spectra of the complexes were measured on a Jenway model 6285 spectrofluorimeter for excitation and emission spectra, 200–700 nm. The magnetic susceptibility of the complexes was measured on a Johnson Matthey magnetic susceptibility balance. […] A microplate reader (StatFax-2100, Awareness Technology, Inc., Palm City, FA, USA), Attune flow cytometer (Applied Biosystems, Foster City, CA, USA), Quawell nanodrop Q5000 (San Jose, CA, USA), StepOnePlus real time PCR system (Applied Biosystems, Foster City, CA, USA), and CO2 incubator (NuAire In-Vitro Cell, Plymouth, MN, USA) were used in biological studies.

With `CS(C)=O.Nc1ccccc1-c1nc2ccccc2[nH]1.O.[Cl][Ru]([Cl])[Cl]` [(2), [Ru(III)Cl3(DMSO)(Hapbim)]·H2O] the “cells in G0/G1 phase” value (Caco2 cells) was 18%, the “cells in G2/M phase” value (Caco2 cells) was 62% and the “cells in S phase” value (Caco2 cells) was 20%. The LD50 [1] was 60 mg/kg, the “IC50 MCF-7” value [2] was 118 ± 8 µg/mL and the IC50 ([2]; read-out: IC50 MCF-7) was 230 ± 10 µM. For the same compound, the “solution stability (UV-Vis spectral change)” value [3] was “changes in absorption bands near 288, 326, and 690 nm after 1 h” and the “E1/2 (Ru(II)/Ru(III) redox couple)” value (Cyclic voltammetry) was −295 mV.
